This note sets out measurements from patent US11820762B2, “Compounds as potential therapeutic agents targeting various neurodegenerative diseases” (The Hong Kong University of Science and Technology, priority 2020, dated 2023).

In test [1] the test system is GMR-GAL4-(G4C2)29 Drosophila. The test is described as follows: Drosophila feeding and external eye assay. The test is classed as in vivo. Particulars: 100 μM in solid food during larval stage; day 7 after eclosion. The protocol:
A fly line expressing 29 GGGGCC repeats (29R) (SEQ ID NO: 6), under the GMR-GAL4 promoter (GMR-GAL4-(G4C2)29 (SEQ ID NO: 6)), was used. Both GMR-GAL4-(G4C2)29 (SEQ ID NO: 6) and WT flies were raised at room temperature (25° C.) on a cornmeal medium supplemented with dry yeast. […] Parent flies for cross were set in solid food containing testing compound, and F1 larvae were thus fed with food continuously until eclosion. After eclosion, F1 flies were transferred to normal food containers without compounds.
Eye images of GMR-GAL4-(G4C2)29 (SEQ ID NO: 6) or WT adult flies at day 7 after eclosion were captured using a CCD camera on an Olympus stereomicroscope. Eye morphologies of flies in different treatment groups were compared to evaluate the retina degeneration level. The affected eye area and total eye area were measured to calculate the degeneration ratio by ImageJ.
We next treated WT Drosophila and Drosophila with GMR-GAL4 driver promoted expression of (G4C2)29-repeats (SEQ ID NO: 6) (GMR-GAL4-(G4C2)29) (SEQ ID NO: 6) with cA or cC by feeding larvae with compounds in solid food. DMSO was used as a negative control. The eyes of day 7 adult Drosophila with GMR-GAL4-(G4C2)29 (SEQ ID NO: 6) were much rougher than the same age WT fly, indicating eye degeneration (FIG. 8E). The affected eye degeneration area accounted for over 50% of the whole eye (FIG. 8F).

Another test has as its target T1, Tau-R3 fibrils (Homo sapiens, UniProt P10636).
T1 construct: Tau-R3 protein was synthesized and purchased from ChinaPeptides Co., Ltd; purchased ChinaPeptides Co., Ltd; host or cells: chemical synthesis
Put plainly: TEM imaging of Tau-R3 fibrils. The test is classed as biochemical. Particulars: cA 10 μg/ml, cB 5 μg/ml, cC 10 μg/ml. The protocol: Samples from ThT fluorescence experiments were directly applied to a 300-mesh carbon coating copper grid. 20 μL of aggregate samples were dispensed onto a sheet of parafilm, and a copper grid was placed onto the sample drop for 5 mins. The copper grid with samples was moved to water drop for 5 mins-washing, and then stained with 2% uranyl acetate for 5 mins. Images were captured using a transmission electron microscope (Thermo Scientific Talos L120C) at a magnification of 13500× and an acceleration voltage of 120 kV.
(§1) In the C9orf72 ALS/FTD, there is a strong genetic association between the microtubule-binding protein, tau and the G4C2 HRE. […] The co-expression of Tau and G4C2 repeats produces a synergistic deterioration of the neurodegeneration phenotype of ALS/FTD^46. Considering the tight correlation of Tau aggregation with the ALS/FTD pathogenesis, we tested our compounds in a non-cell-based Tau-R3 aggregation inhibition assay. […] Moreover, we conducted high magnification TEM imaging to characterize the morphological changes of Tau-R3 fibrils with cA, cB and cC treatments. […] Furthermore, the misfolding of tau protein into filaments in neurons of the central nervous system can be found in various neurodegenerative diseases, such as Alzheimer's disease et al. Therefore, the inhibition on tau aggregation represented a potential of cA and its derivatives in targeting multiple other neurodegenerative diseases more than ALS.

A further test deals with T2, Tau-R3 (Homo sapiens, UniProt P10636).
T2 construct: Tau-R3 protein was synthesized and purchased from ChinaPeptides Co., Ltd; purchased ChinaPeptides Co., Ltd; host or cells: chemical synthesis
The test is described as follows: Thioflavin T (ThT) fluorescent tau-R3 aggregation assay. The format is biochemical. As to conditions: 20 μM Tau-R3, 10 μM heparin, read-out: IC50 of Tau-R3 aggregation inhibition (converted). On the procedure:
Tau-R3 protein was synthesized and purchased from ChinaPeptides Co., Ltd. ThT (ab120751, 1 mM) solution was freshly prepared in 50 mM Tris-HCl buffer (pH 7.4) and passed through a 0.45 μm pore size filter to remove insoluble particles before use. Tau-R3 (20 μM) was incubated with 20 μM ThT and 10 μM heparin in the presence or absence of cA, cB and cC. Samples in 200 μL were added to 96-well plates and incubated at 37° C. for 24-48 hours. ThT fluorescence intensity was recorded using a microplate reader with 440/480 nm excitation/emission filters at different time points. Non-linear regression analysis was performed to fit the boltzmann sigmoidal.
as §1

The test system of test [2] is G4C2 RNA foci in (G4C2)29 overexpressed Neuro2a cells. Put plainly: RNA fluorescent in situ hybridisation, RNA foci numbers. Details: CAGG (control probe) RNA foci numbers: dose or concentration left out as unconfirmed. The test is classed as cell-based. Particulars: for G4C2 RNA foci numbers in cells: 1 g/ml treatment for 2 days; for CAGG (control probe) RNA foci numbers: treatment for 2 days. On the procedure: Neuro2a cells planted on coverslips were transfected with pHR-Tre3G-29xGGGGCC-12xMS2 plasmid (#99149), incubated for 2-3 days and then fixed with 4% paraformaldehyde for 15 min at room temperature. Cells were permeabilised with 0.1% TritonX-100 in PBS for 10 min before hybridisation. Target probe ([…]) (SEQ ID NO: 1) with a 5′-Cy3 and control probe ([…]) (SEQ ID NO: 2) with a 5′-Cy5 were added to the hybridisation solution (0.9M NaCl, 0.02M Tris-HCl, 0.01% SDS, 20% formamide). Cells were then incubated in the mixed solution at 46° C. for 3 h. Cells were washed three times in washing solution (0.02M Tris-HCl, 0.001% SDS, 5 mM EDTA) at 48° C., 15 min each time. Then, cells were stained with primary antibodies (Anti-DNA G-quadruplex (G4) antibody (Cat. No. MABE1126) or Anti-hnRNP H antibody (ab10374)) at 1:500 dilution and incubated at 4° C. overnight. In the next day, cells were washed three times with PBS (10 min each time), and then incubated with secondary antibodies (Alexa 488 anti-mouse for G4 or Alex 488 anti-rabbit for hnRNP H) at 1:500 dilution for 1 h at room temperature. Superfluous secondary antibodies were washed away with PBS for three times (10 min each time). Then cells were incubated with DAPI at 1:5000 dilution for 5 mins and washed with PBS once. Finally, cells on slides were air-dried, mounted in Hydromount medium and analysed by confocal microscopy (Leica, SP8).
Firstly, we confirmed that RNA foci were specifically observed in the (G4C2)29 (SEQ ID NO: 6) overexpressed Neuro2a cells (FIG. 8C).

T1 sequence (P10636 623-653 limits assumed): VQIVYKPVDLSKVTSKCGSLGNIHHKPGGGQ
T2 sequence (P10636 623-653 limits assumed): as above

For `CC(=O)Cc1cc2c(c(O)c1C(=O)O)-c1c(c(O)c3oc4c(O[C@@H]5OC(C(=O)O)=C[C@H](O)[C@H]5O)cccc4c(=O)c3c1O)CC2` [cA, chrexanthomycin A], in test [1], the eye degeneration phenotype result is on record as “significantly rescuing the eye degeneration phenotype”. Also, the “morphological change of Tau-R3 fibrils (TEM)” value (from here on “morphological change”) on Tau-R3 fibrils is “broken into shorter and thinner fragments”. Moreover, the concentration for half-maximal inhibition (IC50) (in general, the midpoint of a concentration-inhibition curve) on Tau-R3 was approximately 0.518 µM. Also, in test [2], the “G4C2 RNA foci numbers in cells” value was “significantly reduced” and the “CAGG (control probe) RNA foci numbers” value is “seldomly changed”.
`COc1c2c(c(O)c3c(=O)c4cccc(O[C@@H]5OC(C(=O)O)=C[C@H](O)[C@H]5O)c4oc13)-c1c(cc(CC(C)=O)c(C(=O)O)c1O)CC2` [cB, chrexanthomycin B]: the “morphological change” value on Tau-R3 fibrils is “broken into shorter and thinner fragments”. In addition, the IC50 at Tau-R3 is 2.05 µM.
`CC(=O)Cc1cc2c(c(O)c1C(=O)O)-c1c(c(O)c3oc4c(O[C@@H]5O[C@H](C(=O)O)[C@@H](O)[C@H](O)[C@H]5O)cccc4c(=O)c3c1O)CC2` [cC, chrexanthomycin C]: in test [1], the eye degeneration phenotype entry is given as “significantly rescuing the eye degeneration phenotype”. Also, the “morphological change” value on Tau-R3 fibrils was “broken into shorter and thinner fragments”. Also, the half-maximal inhibitory concentration (IC50) at Tau-R3 was 5.76 µM. Further, in test [2], the “G4C2 RNA foci numbers in cells” value was “significantly reduced” and the “CAGG (control probe) RNA foci numbers” value was “seldomly changed”.
